# Measurements as given in PubChem BioAssay AID256 (DTP/NCI, 2004).
# Where “and” joins values, the source holds several entries; their conditions need not be identical. Equal values may be shown once. Toxic doses and inconclusive results are not listed.
# System: CD2F1 mice, L1210 leukemia ip, survival T/C
# Test: NCI In Vivo Anticancer Drug Screen. Data for tumor model L1210 Leukemia (intraperitoneal) in CD2F1 (CDF1) mice
# Conditions: endpoint: mean survival time, higher = longer survival
# Outline: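 Vehicle-treated tumor-bearing mice served as controls (C) for compound-treated mice (T). Reported figure is T divided by C.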
# [1] = dose: 100.0 mg/kg/injection, schedule: Q01DX001 (ip), vehicle: Klucel (hydroxypropylcellulose) (HPC)
# [2] = dose: 200.0 mg/kg/injection, schedule: Q01DX001 (ip), vehicle: Klucel (hydroxypropylcellulose) (HPC)
# [3] = dose: 400.0 mg/kg/injection, schedule: Q01DX001 (ip), vehicle: Klucel (hydroxypropylcellulose) (HPC)
# [4] = dose: 100.0 mg/kg/injection, schedule: Q01DX009 (ip), vehicle: saline with Tween-80
# [5] = dose: 100.0 mg/kg/injection, schedule: Q04DX003 (ip), vehicle: saline with Tween-80
# [6] = dose: 200.0 mg/kg/injection, schedule: Q01DX009 (ip), vehicle: saline with Tween-80
# [7] = dose: 200.0 mg/kg/injection, schedule: Q04DX003 (ip), vehicle: saline with Tween-80
# [8] = dose: 400.0 mg/kg/injection, schedule: Q01DX009 (ip), vehicle: saline with Tween-80
# [9] = dose: 400.0 mg/kg/injection, schedule: Q04DX003 (ip), vehicle: saline with Tween-80
# [10] = dose: 100.0 mg/kg/injection, schedule: Q04DX002 (ip), vehicle: saline with Tween-80
# [11] = dose: 25.0 mg/kg/injection, schedule: Q04DX003 (ip), vehicle: saline with Tween-80
# [12] = dose: 50.0 mg/kg/injection, schedule: Q04DX003 (ip), vehicle: saline with Tween-80
# [13] = dose: 6.25 mg/kg/injection, schedule: Q01DX009 (ip), vehicle: saline with Tween-80
# [14] = dose: 12.5 mg/kg/injection, schedule: Q01DX009 (ip), vehicle: saline with Tween-80
# [15] = dose: 25.0 mg/kg/injection, schedule: Q01DX009 (ip), vehicle: saline with Tween-80
# [16] = dose: 50.0 mg/kg/injection, schedule: Q01DX009 (ip), vehicle: saline with Tween-80
# [17] = dose: 25.0 mg/kg/injection, schedule: Q04DX002 (ip), vehicle: saline
# [18] = dose: 50.0 mg/kg/injection, schedule: Q04DX002 (ip), vehicle: saline
# [19] = dose: 12.5 mg/kg/injection, schedule: Q04DX003 (ip), vehicle: saline with Tween-80
# [20] = dose: 100.0 mg/kg/injection, schedule: Q01DX001 (ip), vehicle: saline with Tween-80
# [21] = dose: 200.0 mg/kg/injection, schedule: Q01DX001 (ip), vehicle: saline with Tween-80
# [22] = dose: 400.0 mg/kg/injection, schedule: Q01DX001 (ip), vehicle: saline with Tween-80
structure (smiles),measurement,setting,value
CC(C)(C)c1cc(C=C(C#N)C#N)cc(C(C)(C)C)c1O,T/C,[1],87 % of control
same,T/C,[2],102 % of control
same,T/C,[3],87 % of control
CCOC(=O)C(C)(C(=O)OCC)c1cc2ccccc2c2ccccc12,T/C,[1],104 % of control
same,T/C,[2],104 % of control
same,T/C,[3],104 % of control
COc1ccc(OC)c(/C=C/c2ccc3ccccc3n2)c1,T/C,[4],110 % of control
same,T/C,[5],104 % of control
same,T/C,[6],98 % of control
same,T/C,[7],104 % of control
same,T/C,[8],106 % of control
same,T/C,[9],108 % of control
O=c1oc(/C=C/c2ccccc2)nc2ccccc12,T/C,[10],100 % of control
same,T/C,"dose: 200.0 mg/kg/injection, schedule: Q04DX002 (ip), vehicle: saline with Tween-80",100 % of control
same,T/C,"dose: 400.0 mg/kg/injection, schedule: Q04DX002 (ip), vehicle: saline with Tween-80",103 % of control
Cc1cc(C)c(COCc2cc(C)c(C)cc2C)cc1C,T/C,"dose: 25.0 mg/kg/injection, schedule: Q01DX009 (ip), vehicle: water",97 % of control
same,T/C,"dose: 50.0 mg/kg/injection, schedule: Q01DX009 (ip), vehicle: water",86 % of control
same,T/C,"dose: 100.0 mg/kg/injection, schedule: Q01DX009 (ip), vehicle: water",92 % of control
same,T/C,"dose: 200.0 mg/kg/injection, schedule: Q01DX009 (ip), vehicle: water",101 % of control
same,T/C,"dose: 400.0 mg/kg/injection, schedule: Q01DX009 (ip), vehicle: water",103 % of control
N#CC1C(=O)c2ccccc2C1=O,T/C,[11],91 % of control
same,T/C,[12],93 % of control
same,T/C,[5],93 % of control
COc1cc([N+](=O)[O-])ccc1NC=O,T/C,"dose: 25.0 mg/kg/injection, schedule: Q04DX002 (ip), vehicle: saline with Tween-80",103 % of control
same,T/C,"dose: 50.0 mg/kg/injection, schedule: Q04DX002 (ip), vehicle: saline with Tween-80",103 % of control
same,T/C,[10],90 % of control
COc1cc(O)c2c(O)c3c(c4c2c1[C@]1(C4)C(C)=CCCC1(C)C)[C@H](O)[C@@]1(O)CC(=O)C(C(N)=O)=C(O)[C@@]1(O)C3=O,T/C,"dose: 1.56 mg/kg/injection, schedule: Q01DX009 (ip), vehicle: saline with Tween-80",96 % of control and 101 % of control
same,T/C,"dose: 3.13 mg/kg/injection, schedule: Q01DX009 (ip), vehicle: saline with Tween-80",98 % of control
same,T/C,[13],104 % of control
same,T/C,[14],114 % of control
same,T/C,"dose: 16.5 mg/kg/injection, schedule: Q04DX003 (ip), vehicle: saline with Tween-80",98 % of control
same,T/C,[15],119 % of control
same,T/C,[11],102 % of control
same,T/C,"dose: 37.5 mg/kg/injection, schedule: Q04DX003 (ip), vehicle: saline with Tween-80",111 % of control
same,T/C,[16],90 % of control
CN(C)C(=Nc1ccccc1)N(C)N,T/C,"dose: 75.0 mg/kg/injection, schedule: Q01DX001 (ip), vehicle: saline",97 % of control
same,T/C,"dose: 150.0 mg/kg/injection, schedule: Q01DX001 (ip), vehicle: saline",100 % of control
O=C(CCN1CC1)Nc1cccc(NC(=O)CCN2CC2)c1,T/C,"dose: 2.5 mg/kg/injection, schedule: Q01DX009 (ip), vehicle: Klucel (hydroxypropylcellulose) (HPC)",118 % of control
same,T/C,"dose: 4.0 mg/kg/injection, schedule: Q01DX009 (ip), vehicle: Klucel (hydroxypropylcellulose) (HPC)",112 % of control
same,T/C,"dose: 10.0 mg/kg/injection, schedule: Q01DX009 (ip), vehicle: Klucel (hydroxypropylcellulose) (HPC)",156 % of control and 165 % of control
same,T/C,"dose: 15.0 mg/kg/injection, schedule: Q01DX009 (ip), vehicle: Klucel (hydroxypropylcellulose) (HPC)",108 % of control
same,T/C,"dose: 20.0 mg/kg/injection, schedule: Q01DX009 (ip), vehicle: Klucel (hydroxypropylcellulose) (HPC)",96 % of control and 104 % of control
Nc1cc(OCC(=O)O)c(Cl)cc1Cl,T/C,"dose: 50.0 mg/kg/injection, schedule: Q01DX009 (ip), vehicle: Klucel (hydroxypropylcellulose) (HPC)",96 % of control
same,T/C,"dose: 100.0 mg/kg/injection, schedule: Q01DX009 (ip), vehicle: Klucel (hydroxypropylcellulose) (HPC)",89 % of control
same,T/C,"dose: 200.0 mg/kg/injection, schedule: Q01DX009 (ip), vehicle: Klucel (hydroxypropylcellulose) (HPC)",93 % of control
C1CSC(=[N+]2CC[N+](=C3SCCS3)CC2)S1,T/C,"dose: 12.5 mg/kg/injection, schedule: Q01DX009 (ip), vehicle: saline",101 % of control
same,T/C,"dose: 25.0 mg/kg/injection, schedule: Q01DX009 (ip), vehicle: saline",104 % of control
same,T/C,[17],100 % of control
same,T/C,[18],88 % of control
CCCC(=O)c1ccc(C)cc1,T/C,[5],97 % of control
same,T/C,[9],88 % of control
CCN(CC)CCCC(C)Nc1ncnc2oc(C)c(C)c12 (centres undefined),T/C,[13],93 % of control
same,T/C,"dose: 6.25 mg/kg/injection, schedule: Q04DX003 (ip), vehicle: saline with Tween-80",103 % of control
same,T/C,[14],95 % of control
same,T/C,[19],105 % of control
same,T/C,[15],95 % of control
same,T/C,[11],102 % of control
CC(C)(CO)CN1CCCCC1,T/C,[5],101 % of control
same,T/C,[7],93 % of control
C[CH2][Pb]([CH2]C)([CH2]C)[O]C(=O)c1ccc2ccccc2n1,T/C,"dose: 0.4 mg/kg/injection, schedule: Q01DX009 (ip), vehicle: saline",103 % of control
same,T/C,"dose: 0.8 mg/kg/injection, schedule: Q01DX009 (ip), vehicle: saline",103 % of control
same,T/C,"dose: 1.6 mg/kg/injection, schedule: Q01DX009 (ip), vehicle: saline",101 % of control
CN(C)C=Nc1cccc2[nH]c3ccccc3c12,T/C,[14],92 % of control
same,T/C,[15],104 % of control
same,T/C,[16],97 % of control
same,T/C,[20],92 % of control
same,T/C,[4],103 % of control
same,T/C,[21],101 % of control
CCCCCCCCCCCCCCCCCC[N+]1(C)CCC1C (centres undefined),T/C,"dose: 1.56 mg/kg/injection, schedule: Q01DX001 (ip), vehicle: saline",101 % of control
same,T/C,"dose: 3.12 mg/kg/injection, schedule: Q01DX001 (ip), vehicle: saline",102 % of control
O=c1[nH]c2ccc(Br)cc2c(=O)o1,T/C,"dose: 100.0 mg/kg/injection, schedule: Q01DX009 (ip), vehicle: saline",104 % of control
same,T/C,"dose: 200.0 mg/kg/injection, schedule: Q01DX009 (ip), vehicle: saline",116 % of control
same,T/C,"dose: 400.0 mg/kg/injection, schedule: Q01DX009 (ip), vehicle: saline",108 % of control
C=CC(=O)Nc1cccc(OC(=O)NCC)c1,T/C,[4],94 % of control
same,T/C,[6],92 % of control
same,T/C,[8],97 % of control
Cc1cc([N+](=O)[O-])cc(Br)c1N,T/C,"dose: 44.0 mg/kg/injection, schedule: Q04DX003 (ip), vehicle: saline with Tween-80",93 % of control
same,T/C,"dose: 66.0 mg/kg/injection, schedule: Q04DX003 (ip), vehicle: saline with Tween-80",95 % of control
same,T/C,[5],93 % of control
same,T/C,"dose: 150.0 mg/kg/injection, schedule: Q04DX003 (ip), vehicle: saline with Tween-80",95 % of control
O=C1C2C(C(=O)N1c1ccc([N+](=O)[O-])cc1)C1c3ccccc3C2C2CCCCN21 (centres undefined),T/C,[1],93 % of control
same,T/C,[2],101 % of control
same,T/C,[3],100 % of control
O=C(CC(C(=O)c1ccccc1)c1ccccc1)c1ccccc1 (centres undefined),T/C,[1],90 % of control
same,T/C,[2],101 % of control
same,T/C,[3],98 % of control
O=[N+]([O-])c1ccccc1NCCO,T/C,[20],101 % of control
same,T/C,[21],98 % of control
same,T/C,[22],102 % of control
O=C(COc1ccc(Cl)c(Cl)c1)Nc1ccc[n+](Cc2ccccc2)c1,T/C,[19],104 % of control
same,T/C,[11],98 % of control
same,T/C,[12],89 % of control
CCN(CC)Cc1cc(Nc2ncnc3oc(C)c(C)c23)ccc1O,T/C,[20],100 % of control
same,T/C,[4],102 % of control
same,T/C,[21],95 % of control
same,T/C,[6],96 % of control
same,T/C,[22],95 % of control
same,T/C,[8],100 % of control
CNNC(=O)OC,T/C,[17],95 % of control
same,T/C,[18],98 % of control
same,T/C,"dose: 100.0 mg/kg/injection, schedule: Q04DX002 (ip), vehicle: saline",121 % of control and 109 % of control
O=C1CCCC1CC1CCCC1=O (centres undefined),T/C,[4],102 % of control
same,T/C,[6],106 % of control
same,T/C,[8],106 % of control
